Experimental data from ChEMBL document CHEMBL1201862, “PubChem BioAssay data set” (2004).
Where a name gives a salt, the structure may show the parent alone.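 Growth conditions: 96-well plates. Treatment: test compound, 48 hours, 5 concentrations. Analysis: linear interpolation between bracketing concentrations; unreached endpoints set to highest concentration. GI50 marks 50% less growth.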 Active and inactive are the calls of the source. Cut-off read from the data, not from the text of the source: active = GI50 up to about 1.1 µM and inactive = higher.

Columns and labels:
Experiment in all cases: NCI-60 cell line screen, 48 h
[1] = test system: 786-0
[2] = test system: A498
[3] = test system: BT-549
[4] = test system: HCC 2998
[5] = test system: HCT-116
[6] = test system: HCT-15
[7] = test system: HOP-62
[8] = test system: Hs-578T
[9] = test system: M14
[10] = test system: MCF7
[11] = test system: MDA-MB-435
[12] = test system: NCI-H23
[13] = test system: NCI-H460
[14] = test system: PC-3
[15] = test system: SF-268
[16] = test system: SK-MEL-2
[17] = test system: SNB-75
[18] = test system: SW-620
[19] = test system: U-251
[20] = test system: UO-31

SMILES	GI50 [1]	GI50 [2]	GI50 [3]	GI50 [4]	GI50 [5]	GI50 [6] [µM]	GI50 [7]	GI50 [8]	GI50 [9]	GI50 [10]	GI50 [11]	GI50 [12]	GI50 [13]	GI50 [14]	GI50 [15]	GI50 [16]	GI50 [17]	GI50 [18]	GI50 [19]	GI50 [20]
O=[N+]([O-])c1ccc2ncccc2c1CCc1c([N+](=O)[O-])ccc2ncccc12	> 100 µM (inactive)	> 100 µM (inactive)	> 100 µM (inactive)	> 100 µM (inactive)	> 100 µM (inactive)	> 100	> 100 µM (inactive)	> 100 µM (inactive)	> 100 µM (inactive)	> 100 µM (inactive)	> 100 µM (inactive)	> 100 µM (inactive)	> 100 µM (inactive)	> 100 µM (inactive)	> 100 µM (inactive)	> 100 µM (inactive)	> 100 µM (inactive)	> 100 µM (inactive)	> 100 µM (inactive)	> 100 µM (inactive)
COc1cc2c(c(OC)c1OC)-c1ccc(SC)c(=O)cc1C(NC(=O)c1ccccc1)CC2 (stereo not given)	< 0.01 µM (active)	< 0.01 µM (active)	15.6 µM (inactive)	< 0.01 µM (active)	< 0.01 µM (active)	< 0.01	< 0.01 µM (active)	< 0.01 µM (active)	< 0.01 µM (active)	< 0.01 µM (active)	< 0.01 µM (active)	0.0107 µM (active)	< 0.01 µM (active)	< 0.01 µM (active)	< 0.01 µM (active)	< 0.01 µM (active)	0.167 µM (active)	< 0.01 µM (active)	< 0.01 µM (active)	0.272 µM (active)
COc1ccc(C(=O)Cn2c(C(C)=O)nc3ccccc32)cc1	6.59 µM (inactive)	67 µM (inactive)	8.45 µM (inactive)	29.9 µM (inactive)	6.15 µM (inactive)	6.35	12.1 µM (inactive)	23.2 µM (inactive)	17.5 µM (inactive)	4.58 µM (inactive)	13.5 µM (inactive)	13.2 µM (inactive)	4.21 µM (inactive)	6.98 µM (inactive)	> 64.9 µM (inactive)	12.7 µM (inactive)	> 100 µM (inactive)	5.56 µM (inactive)	3.74 µM (inactive)	11.8 µM (inactive)
CC#CC(=O)SCCNC(=O)CC	> 6.7 µM (inactive)	> 10 µM (inactive)	3.81 µM (inactive)	> 10 µM (inactive)	8.51 µM (inactive)	> 10	> 10 µM (inactive)	> 10 µM (inactive)	> 8.05 µM (inactive)	4.41 µM (inactive)	7.24 µM (inactive)	> 10 µM (inactive)	> 10 µM (inactive)	> 10 µM (inactive)	> 10 µM (inactive)	> 10 µM (inactive)	> 10 µM (inactive)	3.01 µM (inactive)	> 10 µM (inactive)	> 10 µM (inactive)
C[C@H](CCC(=O)O[C@@H]1CC[C@@]2(C)C(CC[C@H]3[C@@H]4CC[C@H]([C@H](C)CCc5nc6ccccc6[nH]5)[C@@]4(C)CC[C@@H]32)C1)[C@H]1CC[C@H]2[C@@H]3CCC4C[C@H](O)CC[C@]4(C)[C@H]3CC[C@]12C (stereo not given in full)	11.5 µM (inactive)	> 87.5 µM (inactive)	> 100 µM (inactive)	2.54 µM (inactive)	> 100 µM (inactive)	> 80.2	25.7 µM (inactive)	0.494 µM (active)	> 100 µM (inactive)	6.34 µM (inactive)	> 100 µM (inactive)	4.53 µM (inactive)	0.518 µM (active)	> 100 µM (inactive)	5.38 µM (inactive)	> 100 µM (inactive)	3.97 µM (inactive)	> 100 µM (inactive)	36.7 µM (inactive)	2.43 µM (inactive)
CCc1ccc2oc(=O)ccc2c1	> 100 µM (inactive)	> 100 µM (inactive)	> 100 µM (inactive)	> 100 µM (inactive)	> 100 µM (inactive)	> 100	> 100 µM (inactive)	> 100 µM (inactive)	> 100 µM (inactive)	> 100 µM (inactive)	> 100 µM (inactive)	> 100 µM (inactive)	> 100 µM (inactive)	> 100 µM (inactive)	> 100 µM (inactive)	> 100 µM (inactive)	> 100 µM (inactive)	> 100 µM (inactive)	> 100 µM (inactive)	31.4 µM (inactive)
C[n+]1c(Cl)cn2c3nc4ccccc4nc3c([O-])c(C#N)c21	> 100 µM (inactive)	> 62.7 µM (inactive)	> 100 µM (inactive)	> 10 µM (inactive)	> 100 µM (inactive)	> 10	> 10 µM (inactive)	> 100 µM (inactive)	> 100 µM (inactive)	18.1 µM (inactive)	> 100 µM (inactive)	> 100 µM (inactive)	9.48 µM (inactive)	> 100 µM (inactive)	> 81.3 µM (inactive)	> 4.65 µM (inactive)	> 54.6 µM (inactive)	> 100 µM (inactive)	> 100 µM (inactive)	> 100 µM (inactive)
c1ccc(-c2cc(-c3cccs3)c(-c3cccs3)o2)cc1	> 100 µM (inactive)	> 100 µM (inactive)	> 100 µM (inactive)	> 100 µM (inactive)	50.7 µM (inactive)	> 100	> 100 µM (inactive)	> 100 µM (inactive)	> 100 µM (inactive)	32.2 µM (inactive)	> 100 µM (inactive)	> 100 µM (inactive)	> 100 µM (inactive)	> 100 µM (inactive)	> 100 µM (inactive)	34.7 µM (inactive)	> 100 µM (inactive)	> 100 µM (inactive)	> 100 µM (inactive)	> 100 µM (inactive)
CC(C)=C1CCC(CN2CCOCC2)C1=O (stereo not given)	3.79 µM (inactive)	33.7 µM (inactive)	17.3 µM (inactive)	15.4 µM (inactive)	4.43 µM (inactive)	5.22	> 55.5 µM (inactive)	28.2 µM (inactive)	3.52 µM (inactive)	4.14 µM (inactive)	15.3 µM (inactive)	17.7 µM (inactive)	27.2 µM (inactive)	17.5 µM (inactive)	15.2 µM (inactive)	19 µM (inactive)	4.72 µM (inactive)	1.76 µM (inactive)	32.1 µM (inactive)	18.1 µM (inactive)
O=C(CCc1ccccc1)On1c(-c2ccccc2)nc2ccccc2c1=S	2.06 µM (inactive)	65.8 µM (inactive)	14.5 µM (inactive)	4.52 µM (inactive)	2.01 µM (inactive)	2.32	3.66 µM (inactive)	13.1 µM (inactive)	5.57 µM (inactive)	4.54 µM (inactive)	8.18 µM (inactive)	4.3 µM (inactive)	1.35 µM (inactive)	4.73 µM (inactive)	3.07 µM (inactive)	8.81 µM (inactive)	9.77 µM (inactive)	8.26 µM (inactive)	4.38 µM (inactive)	3.66 µM (inactive)
CC(C)=CCCC(C)C1=C(O)C(=O)C(C)=CC1=O (stereo not given)	5.86 µM (inactive)	18.7 µM (inactive)	14.6 µM (inactive)	12.8 µM (inactive)	4.71 µM (inactive)	2.23	18.9 µM (inactive)	25.1 µM (inactive)	17.2 µM (inactive)	5.74 µM (inactive)	16.7 µM (inactive)	16.7 µM (inactive)	27.7 µM (inactive)	17.4 µM (inactive)	20.2 µM (inactive)	17.7 µM (inactive)	18.4 µM (inactive)	5.94 µM (inactive)	22.9 µM (inactive)	7.82 µM (inactive)
O=C1c2cccc3cccc(c23)C(=O)N1CCCNCCCCNCCCNCCCN1C(=O)c2cccc3cccc(c23)C1=O [BISNAPHTHALIMIDOPROPYL SPERMIDINE TRIHYDROBROMIDE]	0.175 µM (active)	0.977 µM (active)	1.64 µM (inactive)	0.586 µM (active)	0.399 µM (active)	11.7	1.1 µM (active)	0.0378 µM (active)	1.52 µM (inactive)	0.0343 µM (active)	0.74 µM (active)	0.35 µM (active)	0.323 µM (active)	0.535 µM (active)	0.282 µM (active)	1.22 µM (inactive)	0.319 µM (active)	0.555 µM (active)	0.338 µM (active)	6.5 µM (inactive)
Cc1cc(N)c2ccccc2[n+]1CCCCCCCCCC[n+]1c(C)cc(N)c2ccccc21 [DEQUALINIUM CHLORIDE]	2.69 µM (inactive)	5.19 µM (inactive)	1 µM (active)	0.904 µM (active)	1.31 µM (inactive)	4.31	1.87 µM (inactive)	1.96 µM (inactive)	2.59 µM (inactive)	0.423 µM (active)	0.541 µM (active)	0.41 µM (active)	0.54 µM (active)	1.07 µM (active)	1.39 µM (inactive)	1.89 µM (inactive)	0.986 µM (active)	2.22 µM (inactive)	0.258 µM (active)	4.43 µM (inactive)
